Drawing on patent publication US6846492B2, “Use of phenylethylamine derivatives for the antimicrobial treatment of surfaces” (Ciba Specialty Chemicals Corporation, priority 2000, dated 2005), this text covers melting point and MIC for three compounds.

Data set [1] concerns Staphylococcus hominis DMS 20328 (= SH). Briefly: MIC determination in microtiter plates, Staphylococcus hominis. Format: cell-based. Conditions: read-out: MIC [ppm] Staphylococcus hominis DSM 20328. A digest of the protocol: (§1)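 Broth microdilution; DMSO stocks, 1:2 series. Inoculum 1−5×10^6 CFU/ml, diluted 1:100 in CASO (bacteria) or Sabouraud 2% glucose (mould). 37 °C/48 h bacteria; 28 °C/5 d A. niger. OD620 turbidity read-out; duplicates.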

In data set [2] the test system is Porphyromonas gingivalis DSM 20709. As to the kind of experiment: MIC determination in microtiter plates, Porphyromonas gingivalis. Type of data set: cell-based. Conditions: read-out: MIC [ppm] Porphyromonas gingivalis DSM 20709. The method, then:
(§2) Determination of the Minimum Inhibitory Concentration (MIC Value) in Microtiter Plates
(§3) Casein/soybean flour peptone bouillon for the preparation of pre-cultures of the test bacteria and yeast.
(§4) Mycological slant agar for the pre-culture of moulds
(§5) The test substances are pre-dissolved in dimethyl sulfoxide (DMSO) and tested in a dilution series of 1:2.
(§6) Bacteria and yeast are cultured overnight in CASO bouillon, the mould is cultured overnight on mycological slant agar, and washed off with 10 ml of 0.85% sodium chloride solution (+0.1% TritonX-100).
(§7) All the test organisms are adjusted to an organism count of 1−5×10^6 CFU/ml using 0.85% sodium chloride solution.
(§8) The test substances are pre-pipetted into microtiter plates in an amount of 8 μl per well.
(§9) Pre-diluted organism suspensions are diluted 1:100 in CASO bouillon (bacteria and yeast) or Sabouraud 2% glucose bouillon (mould) and are added in an amount of 192 μl per well to the test substances.
(§10) The test batches are incubated for 48 hours at 37° C. (bacteria and yeast) or for 5 days at 28° C. (mould).
(§11) After incubation, the growth is evaluated by reference to the turbidity of the test batches (optical density) at 620 nm in a microplate reader.
(§12) One microtiter plate is used for each test organism and substance concentration. All the substances are tested in duplicate.

Data set [3] has as its system Streptococcus mutans ATCC 25175. Briefly: MIC determination in microtiter plates, Streptococcus mutans. Type of data set: cell-based. The conditions noted are these: read-out: MIC [ppm] Streptococcus mutans ATCC 25175. The method, then:
as §2, §3, §4, §5, §6, §7, §8, §9, §10, §11, §12

For data set [4], the system named is Epidermophyton floccosum DSM 10709. As to the kind of experiment: MIC determination in microtiter plates, Epidermophyton floccosum. Type of data set: cell-based. Conditions: DSM10709, 120 h, read-out: MIC [ppm] Epidermophyton floccosum DSM 10709. The method, then:
as §2, §3, §4, §5, §6, §7, §8, §9, §10, §11, §12

Data set [5] concerns Trichophyton rubrum DSM 4167. As to the kind of experiment: MIC determination in microtiter plates, Trichophyton rubrum. The conditions noted are these: DSM4167, 120 h, read-out: MIC [ppm] Trichophyton rubrum DSM 4167. Type of data set: cell-based. On the procedure:
as §2, §3, §4, §5, §6, §7, §8, §9, §10, §11, §12

In data set [6] the test system is Streptococcus sobrinus DSM 20742. As to the kind of experiment: MIC determination in microtiter plates, Streptococcus sobrinus. Type of data set: cell-based. The conditions noted are these: read-out: MIC [ppm] Streptococcus sobrinus DSM 20742. On the procedure:
as §2, §3, §4, §5, §6, §7, §8, §9, §10, §11, §12

The subject of data set [7] is Candida albicans ATCC 10231 (= CA). Briefly: MIC determination in microtiter plates, Candida albicans. Type of data set: cell-based. Conditions: read-out: MIC [ppm] Candida albicans ATC 10231. An outline of the steps: as §1
The subject of data set [8] is Corynebacterium xerosis ATCC 373. Briefly: MIC determination in microtiter plates, Corynebacterium xerosis. Format: cell-based. Conditions: read-out: MIC [ppm] Corynebacterium xerosis ATCC 373. The method, then:
as §2, §3, §4, §5, §6, §7, §8, §9, §10, §11, §12

The subject of data set [9] is Enterococcus hirae ATCC 10541. Briefly: MIC determination in microtiter plates, Enterococcus hirae. Format: cell-based. The conditions noted are these: read-out: MIC [ppm] Enterococcus hirae ATCC 10541. On the procedure:
as §2, §3, §4, §5, §6, §7, §8, §9, §10, §11, §12

The test system of data set [10] is Staphylococcus epidermidis ATCC 12228. As to the kind of experiment: MIC determination in microtiter plates, Staphylococcus epidermidis. Conditions: read-out: MIC [ppm] Staphylococcus epidermidis ATCC 12228. Type of data set: cell-based. The method, then: as §2, §3, §4, §5, §6, §7, §8, §9, §10, §11, §12
In data set [11] the test system is Aspergillus niger ATCC 6275 (= AN). As to the kind of experiment: MIC determination in microtiter plates, Aspergillus niger. Type of data set: cell-based. Conditions: ATCC6275, 120 h, Table 2c, 5 days at 28° C., read-out: MIC [ppm] Aspergillus niger ATCC 6275. An outline of the steps: as §1
For data set [12], the system named is Staphylococcus aureus ATCC 9144. As to the kind of experiment: MIC determination in microtiter plates, Staphylococcus aureus. Format: cell-based. Conditions: read-out: MIC [ppm] Staphylococcus aureus ATCC 9144. The method, then:
as §2, §3, §4, §5, §6, §7, §8, §9, §10, §11, §12

Data set [13] concerns Actinomyces viscosum DSM 43329. As to the kind of experiment: MIC determination in microtiter plates, Actinomyces viscosum. The conditions noted are these: DSM43329, 48 h, read-out: MIC [ppm] Actinomyces viscosum DSM 43329. Format: cell-based. The method, then: as §2, §3, §4, §5, §6, §7, §8, §9, §10, §11, §12
In data set [14] the test system is Selenomonas artemidis ATCC 43528. Briefly: MIC determination in microtiter plates, Selenomonas artemidis. Type of data set: cell-based. The conditions noted are these: Centipeda artemidis, ATCC43528; Table 2c; 48 hours at 37° C.; read-out: MIC [ppm] Selenomonas artemidis ATCC 43528. The method, then:
as §2, §3, §4, §5, §6, §7, §8, §9, §10, §11, §12

Data set [15] concerns Trichophyton mentagrophytes ATCC 9533. As to the kind of experiment: MIC determination in microtiter plates, Trichophyton mentagrophytes. Format: cell-based. The conditions noted are these: ATCC9533, 120 h, Table 2c, 5 days at 28° C., read-out: MIC [ppm] Trichophyton mentagrophytes ATCC 9533. The method, then:
as §2, §3, §4, §5, §6, §7, §8, §9, §10, §11, §12

Data set [16] deals with Propionibacterium acnes ATCC11829. Briefly: MIC determination in microtiter plates, Propionibacterium acnes. Format: cell-based. The conditions noted are these: Cutibacterium acnes, ATCC11829, 48 h, read-out: MIC [ppm] Propionibacterium acnes ATCC11829. The method, then: as §2, §3, §4, §5, §6, §7, §8, §9, §10, §11, §12
Data set [17] concerns Escherichia coli NCTC 8196 (= EC). Briefly: MIC determination in microtiter plates, Escherichia coli. Format: cell-based. Conditions: NCTC8196, Table 2c, 48 hours at 37° C., read-out: MIC [ppm] Escherichia coli NCTC 8196. An outline of the steps:
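Test substances in DMSO, 1:2 dilution series; organisms adjusted to 1−5×10^6 CFU/ml, then diluted 1:100 in CASO bouillon (bacteria) or Sabouraud 2% glucose bouillon (mould). Bacteria incubated 48 h at 37° C., mould 5 days at 28° C.; growth read as turbidity at 620 nm, in duplicate.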

Molecules are shown by their SMILES. ≈ marks a conversion by molar mass, not a printed value. Where a name gives a salt, the structure may show the parent alone. Read-outs that look alike come from different tables or passages of the source.

As usually defined, the melting point is the temperature of the solid-liquid transition. Turning to `NCCc1cc(OCc2ccccc2)c(OCc2ccccc2)c(OCc2ccccc2)c1` (as salt: hydrochloride), the melting point amounted to 130 °C.
By MIC is commonly meant the least concentration at which growth counts as inhibited. As to `CCCCCCCCCCCCOc1ccc(CCN)cc1` [Compound 101, 1-Amino-2-(4-dodecyloxyphenyl)ethane], the MIC is 8 mg/L (≈ 26.2 µM) in data set [1] (DSM20328, Table 2c, 48 hours at 37° C.); 25 mg/L (≈ 81.8 µM) in data set [2] (DSM20709, Table 2c, 48 hours at 37° C.); 6 mg/L (≈ 19.6 µM) in data set [3] (ATCC25175, Table 2c, 48 hours at 37° C.); 3 mg/L (≈ 9.82 µM) in [4] (Table 2c, 5 days at 28° C.); 13 mg/L (≈ 42.6 µM) in data set [5] (Table 2c, 5 days at 28° C.); 13 mg/L (≈ 42.6 µM) in [6] (DSM20742, Table 2c, 48 hours at 37° C.). For the same compound, the MIC is 50 mg/L (≈ 164 µM) in data set [7] (ATCC10231, Table 2c, 48 hours at 37° C.); 6 mg/L (≈ 19.6 µM) in data set [8] (ATCC373, Table 2c, 48 hours at 37° C.); 50 mg/L (≈ 164 µM) in data set [9] (ATCC10541, Table 2c, 48 hours at 37° C.); 13 mg/L (≈ 42.6 µM) in data set [10] (ATCC12228, Table 2c, 48 hours at 37° C.); 1 mg/L (≈ 3.27 µM) in data set [11]; 13 mg/L (≈ 42.6 µM) in data set [12] (ATCC9144, Table 2c, 48 hours at 37° C.).
For `CCCCCCOc1ccc(CCN)cc1OCCCCCC` [Compound 102, 1-Amino-2-(3,4-dihexyloxyphenyl)ethane], the MIC was found to be 4 mg/L (≈ 12.4 µM) in data set [1] (DSM20328, 48 h); 2 mg/L (≈ 6.22 µM) in data set [2] (DSM20709, 48 h); 13 mg/L (≈ 40.4 µM) in data set [13]; 3 mg/L (≈ 9.33 µM) in [3] (ATCC25175, 48 h); 6 mg/L (≈ 18.7 µM) in data set [4]; 25 mg/L (≈ 77.8 µM) in [14]. Also, the MIC in data set [5] was found to be 25 mg/L (≈ 77.8 µM); in data set [6] (DSM20742, 48 h) it was 6 mg/L (≈ 18.7 µM); in data set [7] (ATCC10231, 48 h) it was 4 mg/L (≈ 12.4 µM); in data set [8] (ATCC373, 48 h), 6 mg/L (≈ 18.7 µM); in data set [9] (ATCC10541, 48 h), 13 mg/L (≈ 40.4 µM); in [10] (ATCC12228, 48 h), 6 mg/L (≈ 18.7 µM). Moreover, the MIC in data set [15] stood at 25 mg/L (≈ 77.8 µM); in data set [16] it was 13 mg/L (≈ 40.4 µM); in data set [12] (ATCC9144, 48 h), 13 mg/L (≈ 40.4 µM); in [17], 4 mg/L (≈ 12.4 µM).
